The results in this text go back to patent publication US20250243171A1, “QUINAZOLINE COMPOUNDS FOR TREATMENT OF DISEASE” (Arthrosi Therapeutics, Inc., priority 2021, published 2025).

Holding throughout (test): EC50 assay: Ba/F3 stable cell proliferation (CCK-8, 72 h)
Holding throughout (assay type): cell-based

The target in assay [1] is T1, Ba/F3 stable cells (Homo sapiens, UniProt P00533, DUP771-773, cells depend on it).
T1 construct: EC50 Ba/F3-EGFR H773-V774insNPH; other: Ba/F3-EGFR H773-V774insNPH cells, 72 h, CCK-8
As to conditions: Ba/F3-EGFR H773-V774insNPH cells. A digest of the protocol: (§1)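 Ba/F3 stable cells were seeded at 4,000 cells/90 μL/well in 96-well plates and held 2 h at 37° C. in 5% CO2, then given 10 μL of serially titrated compound (0.1% DMSO final). After 72 h at 37° C., CCK-8 reagent was added for 4 hours and absorbance read at 450 nm to derive EC50.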

Assay [2] addresses T2, Ba/F3 stable cells (Homo sapiens, UniProt P00533, DUP768-770, cells depend on it).
T2 construct: EC50 Ba/F3-EGFR D770-N771insSVD; other: Ba/F3-EGFR D770-N771insSVD cells, 72 h, CCK-8
The settings on record: Ba/F3-EGFR D770-N771insSVD cells. A digest of the protocol: as §1

In assay [3] the target is T3, Ba/F3 stable cells (Homo sapiens, UniProt P00533, T790M/L858R, cells depend on it).
T3 construct: EC50 Ba/F3-EGFR L858R-T790M; other: Ba/F3-EGFR L858R-T790M cells, 72 h, CCK-8
The settings on record: Ba/F3-EGFR L858R-T790M cells. An outline of the steps: as §1

The target in assay [4] is T4, Ba/F3 stable cells (Homo sapiens, UniProt P04626, DUP772-775, cells depend on it).
T4 construct: EC50 Ba/F3-HER2 A775-G776insYVMA; other: Ba/F3-HER2 A775-G776insYVMA cells, 72 h, CCK-8
The settings on record: Ba/F3-HER2 A775-G776insYVMA cells. A digest of the protocol:
as §1

Assay [5] concerns the target T5, Ba/F3 stable cells (Homo sapiens, UniProt P00533, DUP767-769, cells depend on it).
T5 construct: EC50 Ba/F3-EGFR V769-D770insASV; other: Ba/F3-EGFR V769-D770insASV cells, 72 h, CCK-8
As to conditions: Ba/F3-EGFR V769-D770insASV cells. A digest of the protocol: as §1

Assay [6] deals with T6, Ba/F3 stable cells (Homo sapiens, UniProt P00533, INS763FQEA, cells depend on it).
T6 construct: EC50 Ba/F3-EGFR A763-Y764insFQEA; other: Ba/F3-EGFR A763-Y764insFQEA cells, 72 h, CCK-8
As to conditions: Ba/F3-EGFR A763-Y764insFQEA cells. An outline of the steps: as §1

T1 sequence (P00533 with tags, fused parts or gaps DUP771-773): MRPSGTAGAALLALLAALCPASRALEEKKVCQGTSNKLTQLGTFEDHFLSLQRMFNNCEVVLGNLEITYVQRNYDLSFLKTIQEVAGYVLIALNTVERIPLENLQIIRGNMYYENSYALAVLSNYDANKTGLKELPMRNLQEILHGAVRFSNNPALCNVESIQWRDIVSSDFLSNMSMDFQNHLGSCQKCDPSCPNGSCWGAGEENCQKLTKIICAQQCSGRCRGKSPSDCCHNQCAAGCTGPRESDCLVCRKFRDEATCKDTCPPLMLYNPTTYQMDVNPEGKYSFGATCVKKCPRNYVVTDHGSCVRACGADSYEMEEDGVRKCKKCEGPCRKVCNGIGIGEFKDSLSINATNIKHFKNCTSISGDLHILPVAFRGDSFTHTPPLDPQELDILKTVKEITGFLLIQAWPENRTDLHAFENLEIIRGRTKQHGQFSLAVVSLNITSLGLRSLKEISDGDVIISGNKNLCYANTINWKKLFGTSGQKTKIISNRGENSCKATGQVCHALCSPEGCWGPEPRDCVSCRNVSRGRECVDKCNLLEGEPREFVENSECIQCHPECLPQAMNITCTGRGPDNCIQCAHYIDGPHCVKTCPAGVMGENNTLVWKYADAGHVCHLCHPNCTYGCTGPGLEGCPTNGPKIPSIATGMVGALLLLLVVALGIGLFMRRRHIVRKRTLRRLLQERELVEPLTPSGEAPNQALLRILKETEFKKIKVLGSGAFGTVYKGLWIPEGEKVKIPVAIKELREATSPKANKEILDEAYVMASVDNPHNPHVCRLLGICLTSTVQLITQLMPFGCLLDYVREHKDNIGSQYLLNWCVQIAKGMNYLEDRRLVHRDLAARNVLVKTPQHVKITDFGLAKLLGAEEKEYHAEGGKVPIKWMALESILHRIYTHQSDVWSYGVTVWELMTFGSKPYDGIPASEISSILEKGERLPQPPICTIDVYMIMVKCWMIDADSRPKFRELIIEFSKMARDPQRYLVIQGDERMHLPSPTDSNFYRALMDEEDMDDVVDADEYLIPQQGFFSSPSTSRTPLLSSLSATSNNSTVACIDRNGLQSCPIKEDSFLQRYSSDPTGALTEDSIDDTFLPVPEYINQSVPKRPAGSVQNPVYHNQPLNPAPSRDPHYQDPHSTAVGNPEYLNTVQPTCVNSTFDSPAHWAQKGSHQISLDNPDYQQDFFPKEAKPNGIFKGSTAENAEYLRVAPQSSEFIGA
T5 sequence (P00533 with tags, fused parts or gaps DUP767-769): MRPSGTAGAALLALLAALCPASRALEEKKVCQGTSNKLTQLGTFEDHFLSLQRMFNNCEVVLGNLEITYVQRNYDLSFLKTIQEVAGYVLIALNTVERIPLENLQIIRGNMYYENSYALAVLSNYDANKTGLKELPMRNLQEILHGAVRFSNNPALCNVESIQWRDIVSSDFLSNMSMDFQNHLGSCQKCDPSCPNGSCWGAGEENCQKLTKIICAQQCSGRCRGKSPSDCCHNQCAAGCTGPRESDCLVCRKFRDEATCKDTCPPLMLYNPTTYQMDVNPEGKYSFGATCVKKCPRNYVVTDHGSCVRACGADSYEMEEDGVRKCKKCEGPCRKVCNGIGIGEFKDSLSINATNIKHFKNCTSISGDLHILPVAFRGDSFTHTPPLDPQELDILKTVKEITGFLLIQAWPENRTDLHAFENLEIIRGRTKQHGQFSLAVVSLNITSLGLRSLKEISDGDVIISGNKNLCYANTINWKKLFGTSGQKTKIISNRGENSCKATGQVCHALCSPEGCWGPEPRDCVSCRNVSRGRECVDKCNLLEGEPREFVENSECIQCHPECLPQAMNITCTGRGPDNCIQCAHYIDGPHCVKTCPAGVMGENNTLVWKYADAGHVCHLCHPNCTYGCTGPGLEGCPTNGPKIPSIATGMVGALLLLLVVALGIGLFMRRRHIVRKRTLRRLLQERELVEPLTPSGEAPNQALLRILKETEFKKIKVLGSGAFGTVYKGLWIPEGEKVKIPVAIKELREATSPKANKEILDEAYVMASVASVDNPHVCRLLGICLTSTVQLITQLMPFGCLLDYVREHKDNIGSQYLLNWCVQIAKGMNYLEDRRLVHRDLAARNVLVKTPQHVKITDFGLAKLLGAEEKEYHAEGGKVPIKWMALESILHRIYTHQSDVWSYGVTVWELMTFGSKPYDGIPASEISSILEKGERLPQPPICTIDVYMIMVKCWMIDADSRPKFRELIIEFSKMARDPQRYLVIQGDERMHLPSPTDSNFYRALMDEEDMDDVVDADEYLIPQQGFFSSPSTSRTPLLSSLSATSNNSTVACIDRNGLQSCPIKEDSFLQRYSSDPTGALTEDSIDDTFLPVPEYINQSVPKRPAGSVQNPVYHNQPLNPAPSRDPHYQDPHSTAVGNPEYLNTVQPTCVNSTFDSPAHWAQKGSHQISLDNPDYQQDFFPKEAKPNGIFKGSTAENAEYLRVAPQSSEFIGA
T4 sequence (P04626 with tags, fused parts or gaps DUP772-775): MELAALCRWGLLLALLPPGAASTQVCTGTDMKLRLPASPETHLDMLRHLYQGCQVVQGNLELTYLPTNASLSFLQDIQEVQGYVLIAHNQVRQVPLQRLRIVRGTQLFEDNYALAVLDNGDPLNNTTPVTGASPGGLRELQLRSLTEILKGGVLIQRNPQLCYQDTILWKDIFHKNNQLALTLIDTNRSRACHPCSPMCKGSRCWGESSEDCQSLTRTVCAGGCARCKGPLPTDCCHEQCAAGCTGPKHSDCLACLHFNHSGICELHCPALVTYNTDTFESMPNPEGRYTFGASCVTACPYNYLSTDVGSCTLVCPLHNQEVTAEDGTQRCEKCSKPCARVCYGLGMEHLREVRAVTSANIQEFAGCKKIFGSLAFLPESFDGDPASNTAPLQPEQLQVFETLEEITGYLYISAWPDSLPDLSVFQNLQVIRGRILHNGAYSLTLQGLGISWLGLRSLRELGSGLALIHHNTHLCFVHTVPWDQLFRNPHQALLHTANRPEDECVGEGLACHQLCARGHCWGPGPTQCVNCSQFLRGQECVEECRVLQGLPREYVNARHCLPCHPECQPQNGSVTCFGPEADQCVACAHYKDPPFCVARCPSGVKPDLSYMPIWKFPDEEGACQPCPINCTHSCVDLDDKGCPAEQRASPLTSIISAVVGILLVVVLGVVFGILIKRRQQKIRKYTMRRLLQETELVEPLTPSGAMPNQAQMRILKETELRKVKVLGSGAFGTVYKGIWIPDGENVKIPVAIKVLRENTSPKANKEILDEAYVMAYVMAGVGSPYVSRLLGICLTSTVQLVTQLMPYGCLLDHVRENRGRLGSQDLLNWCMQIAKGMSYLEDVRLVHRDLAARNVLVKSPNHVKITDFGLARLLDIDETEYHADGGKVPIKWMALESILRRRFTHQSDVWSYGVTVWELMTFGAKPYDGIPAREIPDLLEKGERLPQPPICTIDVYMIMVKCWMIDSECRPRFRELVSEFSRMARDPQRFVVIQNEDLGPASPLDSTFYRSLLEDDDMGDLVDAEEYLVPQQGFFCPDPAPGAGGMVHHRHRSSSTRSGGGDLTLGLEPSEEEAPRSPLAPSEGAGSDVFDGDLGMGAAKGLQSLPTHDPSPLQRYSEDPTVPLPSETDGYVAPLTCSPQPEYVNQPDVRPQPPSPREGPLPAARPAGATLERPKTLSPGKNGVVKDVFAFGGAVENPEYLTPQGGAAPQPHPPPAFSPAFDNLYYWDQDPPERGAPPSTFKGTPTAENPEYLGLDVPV
T3 sequence (P00533 whole entry T790M/L858R): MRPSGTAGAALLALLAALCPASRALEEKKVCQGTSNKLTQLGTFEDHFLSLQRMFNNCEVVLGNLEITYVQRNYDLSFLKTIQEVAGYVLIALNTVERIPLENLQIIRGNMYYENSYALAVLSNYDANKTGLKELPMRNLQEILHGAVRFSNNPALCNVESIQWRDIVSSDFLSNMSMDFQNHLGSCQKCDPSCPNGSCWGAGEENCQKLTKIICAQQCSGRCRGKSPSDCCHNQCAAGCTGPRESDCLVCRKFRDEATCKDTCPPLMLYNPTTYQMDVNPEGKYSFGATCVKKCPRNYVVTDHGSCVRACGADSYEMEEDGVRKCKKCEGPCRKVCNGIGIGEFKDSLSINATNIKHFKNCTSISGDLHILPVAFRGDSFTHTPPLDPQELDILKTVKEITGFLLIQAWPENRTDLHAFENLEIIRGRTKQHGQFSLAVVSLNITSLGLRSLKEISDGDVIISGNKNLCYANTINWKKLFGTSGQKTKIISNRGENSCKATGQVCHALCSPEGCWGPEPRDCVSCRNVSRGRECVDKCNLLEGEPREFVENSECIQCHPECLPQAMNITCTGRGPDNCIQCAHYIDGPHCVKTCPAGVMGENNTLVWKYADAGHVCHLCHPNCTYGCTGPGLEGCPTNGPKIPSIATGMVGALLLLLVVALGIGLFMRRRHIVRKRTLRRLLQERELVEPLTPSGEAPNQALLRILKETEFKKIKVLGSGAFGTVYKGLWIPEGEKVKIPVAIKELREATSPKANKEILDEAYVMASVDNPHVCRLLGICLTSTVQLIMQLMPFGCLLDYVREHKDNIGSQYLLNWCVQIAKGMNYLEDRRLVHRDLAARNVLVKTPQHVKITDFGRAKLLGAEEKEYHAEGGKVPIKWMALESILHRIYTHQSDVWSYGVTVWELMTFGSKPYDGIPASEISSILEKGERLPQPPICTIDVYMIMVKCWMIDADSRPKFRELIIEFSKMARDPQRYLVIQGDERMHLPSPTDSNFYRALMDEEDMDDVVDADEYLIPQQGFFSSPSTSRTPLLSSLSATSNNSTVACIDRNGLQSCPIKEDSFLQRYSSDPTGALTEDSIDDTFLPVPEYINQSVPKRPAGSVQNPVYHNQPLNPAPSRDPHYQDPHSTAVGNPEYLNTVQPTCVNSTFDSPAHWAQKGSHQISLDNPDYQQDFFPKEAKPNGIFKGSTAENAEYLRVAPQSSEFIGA

For `C=CC(=O)N1CCC(Oc2cc3c(Nc4ccc5cnccc5c4)ncnc3cc2OC)CC1` [Compound 140, 1-(4-((4-(isoquinolin-6-ylamino)-7-methoxyquinazolin-6-yl)oxy)piperidin-1-yl)prop-2-en-1-one], the EC50 in assay [1], in assay [2], in assay [3], in assay [4], in assay [5] and in assay [6] was greater than 1 µM in each case.
With `C=CC(=O)N1CCC(Oc2cc3c(Nc4ccc5cccnc5c4)ncnc3cc2OC)CC1` [Compound 141, 1-(4-((7-methoxy-4-(quinolin-7-ylamino)quinazolin-6-yl)oxy)piperidin-1-yl)prop-2-en-1-one], the EC50 was 0.2 to 1 µM in assay [1]; greater than 1 µM in assay [2]; 0.2 to 1 µM in assay [3]; 0.2 to 1 µM in assay [4]; 0.2 to 1 µM in assay [5]; no more than 0.2 µM in assay [6].
`C=CC(=O)N1CCC(Oc2cc3c(Nc4ccc5scnc5c4)ncnc3cc2OC)CC1` [Compound 142, 1-(4-((4-(benzo[d]thiazol-5-ylamino)-7-methoxyquinazolin-6-yl)oxy)piperidin-1-yl)prop-2-en-1-one]: the EC50 in assay [1] is 0.2 to 1 µM; in assay [2], greater than 1 µM; in assay [3], 0.2 to 1 µM; in assay [4] it was no more than 0.2 µM; in assay [5], no more than 0.2 µM; in assay [6], no more than 0.2 µM.
As for `C=CC(=O)N1CCC(Oc2cc3c(Nc4ccc5ncccc5c4)ncnc3cc2OC)CC1` [Compound 143, 1-(4-((7-methoxy-4-(quinolin-6-ylamino)quinazolin-6-yl)oxy)piperidin-1-yl)prop-2-en-1-one], the EC50 is 0.2 to 1 µM in assay [1]; greater than 1 µM in assay [2]; 0.2 to 1 µM in assay [3]; 0.2 to 1 µM in assay [4]; no more than 0.2 µM in assay [5]; no more than 0.2 µM in assay [6].
Take `C=CC(=O)N1CCC(Oc2cc3c(Nc4ccc5nccnc5c4)ncnc3cc2OC)CC1` [Compound 144, 1-(4-((7-methoxy-4-(quinoxalin-6-ylamino)quinazolin-6-yl)oxy)piperidin-1-yl)prop-2-en-1-one]: the EC50 in assay [1] was greater than 1 µM; in assay [2], greater than 1 µM; in assay [3] it was greater than 1 µM; in assay [4], greater than 1 µM; in assay [5] it was greater than 1 µM; in assay [6], 0.2 to 1 µM.
For `C=CC(=O)N1CCC(Oc2cc3c(Nc4ccc5ncsc5c4)ncnc3cc2OC)CC1` [Compound 145, 1-(4-((4-(benzo[d]thiazol-6-ylamino)-7-methoxyquinazolin-6-yl)oxy)piperidin-1-yl)prop-2-en-1-one], the EC50 in assay [1] was 0.2 to 1 µM; in assay [2] it was greater than 1 µM; in assay [3], 0.2 to 1 µM; in assay [4], greater than 1 µM; in assay [5], 0.2 to 1 µM; in assay [6], no more than 0.2 µM.
As to `C=CC(=O)N1CCC(Oc2cc3c(Nc4cccc5cccnc45)ncnc3cc2OC)CC1` [Compound 146, 1-(4-((7-methoxy-4-(quinolin-8-ylamino)quinazolin-6-yl)oxy)piperidin-1-yl)prop-2-en-1-one], the EC50 in assay [1] was 0.2 to 1 µM; in assay [2], 0.2 to 1 µM; in assay [3], 0.2 to 1 µM; in assay [4] it was 0.2 to 1 µM; in assay [5], no more than 0.2 µM; in assay [6], no more than 0.2 µM.
Consider `C=CC(=O)N1CCC(Oc2cc3c(N4CCN(c5cccc(Cl)c5)CC4)ncnc3cc2OC)CC1` [Compound 147, 1-(4-((4-(4-(3-chlorophenyl)piperazin-1-yl)-7-methoxyquinazolin-6-yl)oxy)piperidin-1-yl)prop-2-en-1-one], for which the EC50 in assay [1], in assay [2], in assay [3], in assay [4], in assay [5] and in assay [6] was greater than 1 µM throughout.
For the molecule `C=CC(=O)N1CCC(Oc2cc3c(Nc4ccc5ccccc5c4)ncnc3cc2OC)CC1` [Compound 148, 1-(4-((7-methoxy-4-(naphthalen-2-ylamino)quinazolin-6-yl)oxy)piperidin-1-yl)prop-2-en-1-one], the EC50 was no more than 0.2 µM in assay [1]; no more than 0.2 µM in assay [2]; no more than 0.2 µM in assay [3]; 0.2 to 1 µM in assay [4]; no more than 0.2 µM in assay [5]; no more than 0.2 µM in assay [6].
For `C=CC(=O)N1CCC(Oc2cc3c(Nc4cccc5ccccc45)ncnc3cc2OC)CC1` [Compound 149, 1-(4-((7-methoxy-4-(naphthalen-1-ylamino)quinazolin-6-yl)oxy)piperidin-1-yl)prop-2-en-1-one], the half-maximal effective concentration (EC50) in assay [1], in assay [2], in assay [3], in assay [4], in assay [5] and in assay [6] was no more than 0.2 µM each time.
`C=CC(=O)N1CCC(Oc2cc3c(Nc4ccc5[nH]ncc5c4)ncnc3cc2OC)CC1` [Compound 150, 1-(4-((4-((1H-indazol-5-yl)amino)-7-methoxyquinazolin-6-yl)oxy)piperidin-1-yl)prop-2-en-1-one]: the EC50 in assay [1] was 0.2 to 1 µM; in assay [2], greater than 1 µM; in assay [3], greater than 1 µM; in assay [4], greater than 1 µM; in assay [5], 0.2 to 1 µM; in assay [6] it was no more than 0.2 µM.
For `C=CC(=O)N1CCC(Oc2cc3c(Nc4cc5oc6ccccc6c5cc4OC)ncnc3cc2OC)CC1` [Compound 151, 1-(4-((7-methoxy-4-((2-methoxydibenzo[b,d]furan-3-yl)amino)quinazolin-6-yl)oxy)piperidin-1-yl)prop-2-en-1-one], the EC50 in assay [1], in assay [2], in assay [3], in assay [4], in assay [5] and in assay [6] was greater than 1 µM each time.
For `C=CC(=O)N1CCC(Oc2cc3c(Nc4ccc5c(c4)OCO5)ncnc3cc2OC)CC1` [Compound 152, 1-(4-((4-(benzo[d][1,3]dioxol-5-ylamino)-7-methoxyquinazolin-6-yl)oxy)piperidin-1-yl)prop-2-en-1-one], the EC50 in assay [1] is 0.2 to 1 µM; in assay [2], 0.2 to 1 µM; in assay [3], 0.2 to 1 µM; in assay [4], no more than 0.2 µM; in assay [5], 0.2 to 1 µM; in assay [6] it was no more than 0.2 µM.
As for `C=CC(=O)N1CCC(Oc2cc3c(Nc4ccc5c(c4)CCC5)ncnc3cc2OC)CC1` [Compound 153, 1-(4-((4-((2,3-dihydro-1H-inden-5-yl)amino)-7-methoxyquinazolin-6-yl)oxy)piperidin-1-yl)prop-2-en-1-one], the EC50 in assay [1] is 0.2 to 1 µM; in assay [2], 0.2 to 1 µM; in assay [3], 0.2 to 1 µM; in assay [4], 0.2 to 1 µM; in assay [5], no more than 0.2 µM; in assay [6], no more than 0.2 µM.
In the case of `C=CC(=O)N1CCC(Oc2cc3c(Nc4ccc5sc(C)nc5c4)ncnc3cc2OC)CC1` [Compound 155, 1-(4-((7-methoxy-4-((2-methylbenzo[d]thiazol-5-yl)amino)quinazolin-6-yl)oxy)piperidin-1-yl)prop-2-en-1-one], the EC50 is greater than 1 µM in assay [1]; greater than 1 µM in assay [2]; 0.2 to 1 µM in assay [3]; 0.2 to 1 µM in assay [4]; greater than 1 µM in assay [5]; no more than 0.2 µM in assay [6].
Take `C=CC(=O)N1CCC(Oc2cc3c(Nc4cccc5c4CCC5)ncnc3cc2OC)CC1` [Compound 156, 1-(4-((4-((2,3-dihydro-1H-inden-4-yl)amino)-7-methoxyquinazolin-6-yl)oxy)piperidin-1-yl)prop-2-en-1-one]: the EC50 in assay [1] was no more than 0.2 µM; in assay [2] it was 0.2 to 1 µM; in assay [3], 0.2 to 1 µM; in assay [4], no more than 0.2 µM; in assay [5] it was no more than 0.2 µM; in assay [6], no more than 0.2 µM.
Turning to `C=CC(=O)N1CCC(Oc2cc3c(Nc4ccc5ccccc5n4)ncnc3cc2OC)CC1` [Compound 158, 1-(4-((7-methoxy-4-(quinolin-2-ylamino)quinazolin-6-yl)oxy)piperidin-1-yl)prop-2-en-1-one], the EC50 in assay [1] is 0.2 to 1 µM; in assay [2], greater than 1 µM; in assay [3], no more than 0.2 µM; in assay [4], greater than 1 µM; in assay [5], 0.2 to 1 µM; in assay [6] it was no more than 0.2 µM.
